Test results as given in patent US20160045505A1, “COMPOUNDS AND COMPOSITIONS FOR THE TREATMENT OF PARASITIC DISEASES” (NOVARTIS AG, priority 2013, published 2016).
Where two headings read alike, the source gives them in different places.

How the values were obtained:
[1] = tested on: L. donovani HU3 strain in mouse peritoneal macrophages; experiment: Assay for proliferation of Leishmania parasites in infected mouse peritoneal macrophages (SybrGreen staining, high-content imaging, 5 days); format: cell-based, Leishmania donovani; settings: Leishmania donovani, Peritoneal macrophage, L. donovani in mouse peritoneal macrophages, inhibition of proliferation; read-out: L. donovani Macrophage EC50
[2] = tested on: Leishmania donovani axenic amastigote parasites; experiment: Leishmania donovani axenic amastigote proliferation assay (Cell TiterGlo luminescence, 2 day incubation); format: cell-based; settings: Leishmania donovani, axenic amastigotes, inhibition of proliferation; read-out: L. donovani amastigotes EC50
[3] = tested on: Trypanosoma cruzi amastigotes (Tulahuen strain expressing Lac-Z) cultured in 3T3 fibroblast cells; experiment: microbe, parasite or virus in culture; format: cell-based; settings: Trypanosoma cruzi, TULAHUEN, Fibroblast, T. cruzi amastigotes in 3T3 fibroblast cells, inhibition of proliferation; read-out: T cruzi EC50
[4] = tested on: Trypanosoma brucei Lister 427 strain, bloodstream form; experiment: Assay for proliferation of kinetoplastid parasite Trypanosoma brucei (Cell Titer Glo, 48 hours); format: cell-based; settings: Trypanosoma brucei, read-out: T. brucei EC50
How it was run: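 Bloodstream-form T. brucei Lister 427 in HMI-9 medium was exposed to compound (DMSO vehicle) for 48 hours at 37° C, 5% CO2. Parasite growth was read as ATP by CellTiter-Glo luminescence, with EC50 calculated from percent inhibition.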

[5] = T. brucei Lister 427 bloodstream form, inhibition of proliferation

| SMILES | EC50 [1] [µM] | EC50 [2] [nM] | EC50 [3] [µM] | EC50 [4, 5] [nM] | EC50 [4] [nM] |
| --- | --- | --- | --- | --- | --- |
| Cc1cc(C(=O)Nc2ccc(F)c(-c3cn4cc(NC(=O)OC(C)C)cnc4n3)c2)no1 [Compound 86] | > 50 | > 25000 | > 20 | 924 | – |
| CC(C)OC(=O)Nc1cnc2nc(-c3cc(NC(=O)C(C)N)ccc3F)cn2c1 (stereo not shown) [Compound 87] | > 43.7 | > 25000 | > 20 | > 50000 | – |
| Cc1ccc(C(=O)Nc2ccc(F)c(-c3cn4cc(NC(=O)OC(C)C)cnc4n3)c2)s1 [Compound 88] | 19.7 | 5370 | 1.17 | – | 1180 |
| CC(C)OC(=O)Nc1cnc2nc(-c3cc(NC(=O)c4cncs4)ccc3F)cn2c1 [Compound 90] | 7.58 | 894 | 1.46 | 610 | – |
| CC(C)OC(=O)Nc1cnc2nc(-c3cc(NC(=O)c4nccn4C)ccc3F)cn2c1 [Compound 97] | 18.2 | 12000 | 10.5 | 13200 | – |
| CC(C)OC(=O)Nc1cnc2nc(-c3cc(NC(=O)c4ccn(C)n4)ccc3F)cn2c1 [Compound 98] | 3.34 | 645 | 0.549 | 503 | – |
| CC(C)OC(=O)Nc1cnc2nc(-c3cc(NC(=O)C4CC(=O)C4)ccc3F)cn2c1 [Compound 101] | 2.52 | 636 | 9.95 | 3490 | – |
| CC(C)OC(=O)Nc1cnc2nc(-c3cc(NC(=O)C4CCC4)ccc3F)cn2c1 [Compound 102] | 1.71 | 540 | 0.464 | 492 | – |
| CC(C)OC(=O)Nc1cnc2nc(-c3cc(NC(=O)/C=C/CN(C)C)ccc3F)cn2c1 [Compound 103] | 9.86 | 2150 | 10.8 | 5620 | – |
| CCC(C)C(=O)Nc1ccc(F)c(-c2cn3cc(NC(=O)OC(C)C)cnc3n2)c1 (stereo not shown) [Compound 104] | > 50 | 2390 | 1.34 | 1210 | – |
| CC(C)OC(=O)Nc1cnc2nc(-c3cc(NC(=O)C(C)C)ccc3F)cn2c1 [Compound 105] | > 50 | 2170 | 1.46 | 1480 | – |
| COCC(=O)Nc1ccc(F)c(-c2cn3cc(NC(=O)OC(C)C)cnc3n2)c1 [Compound 106] | 24.8 | 2740 | 3.45 | 2200 | – |
| CC(C)OC(=O)Nc1cnc2nc(-c3cc(NC(=O)c4ccc(S(C)(=O)=O)s4)ccc3F)cn2c1 [Compound 109] | 28.2 | > 25000 | > 20 | > 50000 | – |
| CC(C)OC(=O)Nc1cnc2nc(-c3cc(NC(=O)CN4CCCC4)ccc3F)cn2c1 [Compound 110] | 8.1 | > 25000 | 9.59 | 27700 | – |
| Cc1cc(C(=O)Nc2ccc(F)c(-c3cn4cc(NC(=O)OC(C)C)cnc4n3)c2)on1 [Compound 112] | 16.6 | 2100 | 1.27 | 1090 | – |
| Cc1nc(C)c(C(=O)Nc2ccc(F)c(-c3cn4cc(NC(=O)C5COCCO5)cnc4n3)c2)o1 (stereo not shown) [Compound 113] | 0.502 | 257 | 2.99 | 452 | – |
| Cc1nc(C)c(C(=O)Nc2ccc(F)c(-c3cn4cc(NC(=O)C5(C)CCC5)cnc4n3)c2)o1 [Compound 114] | 0.266 | 143 | 1.07 | 105 | – |
| Cc1nc(C)c(C(=O)Nc2ccc(F)c(-c3cn4cc(NC(=O)C5(C)CC5)cnc4n3)c2)o1 [Compound 115] | 0.093 | 73 | 0.41 | 54 | – |
| CC1=C(C(=O)Nc2cnc3nc(-c4cc(NC(=O)c5oc(C)nc5C)ccc4F)cn3c2)OCCO1 [Compound 116] | 0.484 | 96 | 3.42 | 153 | – |
| CCn1ccnc1C(=O)Nc1cnc2nc(-c3cc(NC(=O)c4oc(C)nc4C)ccc3F)cn2c1 [Compound 117] | > 50 | 125 | > 20 | 166 | – |
| Cc1nc(C)c(C(=O)Nc2ccc(F)c(-c3cn4cc(NC(=O)C5(C)CC(F)(F)C5)cnc4n3)c2)o1 [Compound 118] | 2.05 | 606 | 3.38 | 442 | – |
| Cc1nc(C)c(C(=O)Nc2ccc(F)c(-c3cn4cc(NC(=O)c5ccccn5)cnc4n3)c2)o1 [Compound 119] | 0.289 | 56 | 0.078 | 86 | – |
| Cc1nc(C)c(C(=O)Nc2ccc(F)c(-c3cn4cc(NC(=O)C5CCOC(C(C)C)C5)cnc4n3)c2)o1 (stereo not shown) [Compound 120] | 0.975 | 300 | 0.767 | 419 | – |

| SMILES | EC50 [1] [µM] | EC50 [2] [nM] | EC50 [3] [µM] | EC50 [4, 5] [nM] | EC50 [4] [nM] |
| --- | --- | --- | --- | --- | --- |
| O=C(Nc1cnc2nc(-c3cc(NC(=O)N4CCCC4)ccc3F)cn2c1)C1CCCN1 (stereo not shown) [Compound 121] | > 50 | 23100 | > 20 | 3950 | – |
| Cc1nc(C)c(C(=O)Nc2cnc3nc(-c4cc(NC(=O)N5CCCC5)ccc4F)cn3c2)o1 [Compound 123] | > 50 | 423 | > 20 | 414 | – |
| O=C(Nc1cnc2nc(-c3cc(NC(=O)N4CCCC4)ccc3F)cn2c1)c1ccc(F)cn1 [Compound 124] | 5.64 | 49 | 0.046 | 23 | – |
| O=C1CCC(C(=O)Nc2cnc3nc(-c4cc(NC(=O)N5CCCC5)ccc4F)cn3c2)N1 (stereo not shown) [Compound 125] | > 50 | > 21900 | > 20 | 7940 | – |
| O=C(Nc1cnc2nc(-c3cc(NC(=O)N4CCCC4)ccc3F)cn2c1)[C@H]1CCCO1 [Compound 126] | 4.05 | 434 | 4.86 | 126 | – |
| CC1(C(=O)Nc2cnc3nc(-c4cc(NC(=O)N5CCCC5)ccc4F)cn3c2)CCCO1 (stereo not shown) [Compound 127] | 2.12 | 561 | 1.98 | 74 | – |
| CCC(O)(C(=O)Nc1cnc2nc(-c3cc(NC(=O)N4CCCC4)ccc3F)cn2c1)C(F)(F)F (stereo not shown) [Compound 128] | > 50 | 1750 | > 20 | 171 | – |
| O=C(Nc1cnc2nc(-c3cc(NC(=O)N4CCCC4)ccc3F)cn2c1)C1CCCCO1 (stereo not shown) [Compound 129] | 1.27 | 435 | 1.34 | 123 | – |
| O=C(Nc1cnc2nc(-c3cc(NC(=O)N4CCCC4)ccc3F)cn2c1)[C@@H]1CNCCO1 [Compound 130] | 26.6 | 13900 | 7.12 | 4660 | – |
| Cc1ncc(C(=O)Nc2cnc3nc(-c4cc(NC(=O)N5CCCC5)ccc4F)cn3c2)o1 [Compound 132] | > 50 | 2870 | > 13.8 | 1550 | – |
| CC1(C(=O)Nc2cnc3nc(-c4cc(NC(=O)N5CCCC5)ccc4F)cn3c2)CC1 [Compound 133] | 0.607 | 97 | 1.84 | 19 | – |
| O=C(Nc1cnc2nc(-c3cc(NC(=O)N4CCCC4)ccc3F)cn2c1)C1CC1 [Compound 134] | 8.36 | 267 | 5.2 | 73 | – |
| O=C(Nc1cnc2nc(-c3cc(NC(=O)N4CCCC4)ccc3F)cn2c1)[C@@H]1CCCO1 [Compound 135] | 3.13 | 255 | 3.79 | 106 | – |
| CC1(C(=O)Nc2cnc3nc(-c4cc(NC(=O)N5CCCC5)ccc4F)cn3c2)CCCCO1 (stereo not shown) [Compound 136] | 1.42 | 392 | > 20 | 157 | – |
| COCCOCC(=O)Nc1cnc2nc(-c3cc(NC(=O)N4CCCC4)ccc3F)cn2c1 [Compound 137] | 24.8 | 2150 | 8.01 | 406 | – |
| CCOCC(=O)Nc1cnc2nc(-c3cc(NC(=O)N4CCCC4)ccc3F)cn2c1 [Compound 138] | 3.88 | 549 | 1.95 | 127 | – |
| COCC(=O)Nc1cnc2nc(-c3cc(NC(=O)N4CCCC4)ccc3F)cn2c1 [Compound 139] | 6.82 | 450 | 3.74 | 128 | – |
| O=C(Nc1ccc(F)c(-c2cn3cc(NC(=O)C4(O)CC4)cnc3n2)c1)N1CCCC1 [Compound 140] | 8.38 | 1270 | > 17.6 | 378 | – |
| O=C1CC(C(=O)Nc2cnc3nc(-c4cc(NC(=O)N5CCCC5)ccc4F)cn3c2)C1 [Compound 141] | 8.28 | 862 | > 20 | 1360 | – |
| CCn1ccnc1C(=O)Nc1cnc2nc(-c3cc(NC(=O)N4CCCC4)ccc3F)cn2c1 [Compound 142] | 0.506 | 63 | 0.179 | 121 | – |
| O=C(Nc1cnc2nc(-c3cc(NC(=O)N4CCCC4)ccc3F)cn2c1)C1COCCO1 (stereo not shown) [Compound 143] | 1.4 | 478 | 7.91 | 159 | – |
| Cn1ccnc1C(=O)Nc1cnc2nc(-c3cc(NC(=O)N4CCCC4)ccc3F)cn2c1 [Compound 144] | > 50 | 555 | > 20 | 164 | – |
| CC1(C(=O)Nc2cnc3nc(-c4cc(NC(=O)N5CCCC5)ccc4F)cn3c2)CCC1 [Compound 145] | 0.464 | 223 | 1.73 | 45 | – |
